pIC50: −log10 of the molar value.
Tests used:
Trypanosoma cruzi [1] = assay: Antitrypanosomal activity against Trypanosoma cruzi (MHOM/CH/00/Tulahuen C2, lacZ) amastigotes infected in HFF-1 cells assessed as reduction in parasite growth incubated for 120 hrs by CPRG/Igepal substrate based photometric method; type: functional, organism-based; details: MHOM/CH/00/Tulahuen C2, HFF-1, 120 h
[2] = Cytotoxicity against human HFF-1 cells assessed as reduction in cell viability incubated for 120 hrs by MTS assay; type: cell-based
Leishmania infantum = assay: Antileishmanial activity against Leishmania infantum MHOM/MA/67/ITMAP-263 infected in THP1 cells assessed as reduction in parasite growth incubated for 120 hrs by Giemsa staining based inverted microscopic analysis; type: functional, organism-based; details: MHOM/MA/67/ITMAP-263, THP-1, 120 h
[3] = Cytotoxicity against human HepG2 cells assessed as reduction in cell viability incubated for 120 hrs by MTS assay; type: cell-based
Trypanosoma cruzi [4] = assay: Antitrypanosomal activity against Trypanosoma cruzi (MHOM/CH/00/Tulahuen C2, lacZ) amastigotes infected in HFF-1 cells assessed as reduction in parasite growth at 300 uM incubated for 120 hrs by CPRG/Igepal substrate based photometric method relative to control; type: functional; details: MHOM/CH/00/Tulahuen C2, HFF-1
Trypanosoma cruzi [5] = assay: Antitrypanosomal activity against Trypanosoma cruzi (MHOM/CH/00/Tulahuen C2, lacZ) amastigotes infected in HFF-1 cells assessed as reduction in parasite growth at 150 uM incubated for 120 hrs by CPRG/Igepal substrate based photometric method relative to control; type: functional; details: MHOM/CH/00/Tulahuen C2, HFF-1
Trypanosoma cruzi [6] = assay: Antitrypanosomal activity against Trypanosoma cruzi (MHOM/CH/00/Tulahuen C2, lacZ) amastigotes infected in HFF-1 cells assessed as reduction in parasite growth at 75 uM incubated for 120 hrs by CPRG/Igepal substrate based photometric method relative to control; type: functional; details: MHOM/CH/00/Tulahuen C2, HFF-1

SMILES | pIC50 (Trypanosoma cruzi [1]) | CC50 at 120 h [2] [µM] | pIC50 (Leishmania infantum) | CC50 at 120 h [3] [µM] | inhibition at 300 µM (Trypanosoma cruzi [4]) [%] | inhibition at 150 µM (Trypanosoma cruzi [5]) [%] | inhibition at 75 µM (Trypanosoma cruzi [6]) [%]
C=C(c1nc(-c2ccccc2)no1)C1(O)C(=O)N(CC)c2ccc([N+](=O)[O-])cc21 (configuration not stated) | < 5.17 | > 64 | 5.29 | 3.61 | 100 | 85.4 | 78.9
C=C(c1nc(-c2ccccc2)no1)C1(O)C(=O)N(CC)c2ccccc21 (configuration not stated) | 5.64 | > 64 | 5.14 | 26.8 | 100 | 100 | 100
C=CCOC1(C(=C)c2nc(-c3ccccc3)no2)C(=O)N(CC)c2c(Br)cccc21 (configuration not stated) | 5.20 | 20.3 | 5.31 | 60.6 | 100 | 100 | 93.8
C=C(c1nc(-c2ccccc2)no1)C(O)c1cccnc1 (configuration not stated) | 5.66 | > 64 | 5.07 | 19 | 100 | 99.6 | 89.5
C=C(c1nc(-c2ccccc2)no1)C1(O)C(=O)N(CC)c2ccc(Br)cc21 (configuration not stated) | 5.66 | > 64 | 5.43 | 11.5 | 100 | 100 | 100
C=C(c1nc(-c2ccccc2)no1)C(O)c1cccc(Cl)c1 (configuration not stated) | 5.21 | > 64 | 5.11 | 20.2 | 100 | 98.6 | 90.5

— ChEMBL document CHEMBL4765358, “Discovery of highly potent and selective antiparasitic new oxadiazole and hydroxy-oxindole small molecule hybrids” (Eur J Med Chem, 2020)
